From patent US10112935B2, “Indazolyl thiadiazolamines and related compounds for inhibition of Rho-associated protein kinase and the treatment of disease” (Lycera Corporation, priority 2015, dated 2018)

Columns and labels:
[1] = molecular target: GST-tagged human ROCK1 catalytic domain 1-477 (Homo sapiens (Human), UniProt Q13464); test: Inhibition of Rho-associated protein kinase isoform 1 (LANCE Ultra ULight-CREBtide FRET kinase assay); type: biochemical; conditions: 30 μM was the highest concentration analyzed
GST-tagged human ROCK1 catalytic domain 1-477, sequence (Q13464 1-477): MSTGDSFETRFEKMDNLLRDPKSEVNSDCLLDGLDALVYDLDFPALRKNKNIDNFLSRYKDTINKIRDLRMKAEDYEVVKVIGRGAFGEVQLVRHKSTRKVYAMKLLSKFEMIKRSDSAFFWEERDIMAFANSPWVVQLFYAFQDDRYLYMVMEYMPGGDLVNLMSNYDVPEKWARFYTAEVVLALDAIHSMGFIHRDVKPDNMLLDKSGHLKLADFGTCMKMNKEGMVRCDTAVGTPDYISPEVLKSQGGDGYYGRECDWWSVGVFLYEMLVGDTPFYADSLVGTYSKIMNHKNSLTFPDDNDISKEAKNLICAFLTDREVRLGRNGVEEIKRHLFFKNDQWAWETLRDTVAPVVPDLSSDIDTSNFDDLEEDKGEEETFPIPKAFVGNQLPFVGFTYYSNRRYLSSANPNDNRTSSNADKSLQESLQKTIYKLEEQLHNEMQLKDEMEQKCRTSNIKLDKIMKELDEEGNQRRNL
Experimental: (§1) Exemplary compounds were tested for ability to inhibit Rho-associated protein kinase isoform 1 (ROCK1) and Rho-associated protein kinase isoform 2 (ROCK2). Assay procedures and results are described below.
(§2) Protein constructs were purified from a baculovirus expression system. The peptide substrate was fluorescent LANCE® Ultra ULight-CREBtide: […] (PerkinElmer, # TRF0107-D). […] After a 90 minute incubation at room temperature on a shaker table, the kinase reaction was stopped by addition of 10 mM EDTA, and phosphorylation of the substrate was detected by adding 1 nM LANCE® Ultra Europium-anti-phospho-CREB (ser133) antibody (PerkinElmer, # TRF0200-D) and incubating for 60 minutes on a shaker at room temperature. The flurorescence resonance energy transfer (FRET) signals were read and analyzed on an Envision™ 2103 Multilabel Reader (Perkin Elmer).

[2] = molecular target: GST-tagged human ROCK2 catalytic domain 1-553 (Homo sapiens (Human), UniProt O75116); test: Inhibition of Rho-associated protein kinase isoform 2 (LANCE Ultra ULight-CREBtide FRET kinase assay); type: biochemical; conditions: for IC50: 30 μM was the highest concentration analyzed; for Selectivity for ROCK2 over ROCK1 (IC50 ROCK1 / IC50 ROCK2): selectivity ROCK2 vs ROCK1
GST-tagged human ROCK2 catalytic domain 1-553, sequence (O75116 1-553): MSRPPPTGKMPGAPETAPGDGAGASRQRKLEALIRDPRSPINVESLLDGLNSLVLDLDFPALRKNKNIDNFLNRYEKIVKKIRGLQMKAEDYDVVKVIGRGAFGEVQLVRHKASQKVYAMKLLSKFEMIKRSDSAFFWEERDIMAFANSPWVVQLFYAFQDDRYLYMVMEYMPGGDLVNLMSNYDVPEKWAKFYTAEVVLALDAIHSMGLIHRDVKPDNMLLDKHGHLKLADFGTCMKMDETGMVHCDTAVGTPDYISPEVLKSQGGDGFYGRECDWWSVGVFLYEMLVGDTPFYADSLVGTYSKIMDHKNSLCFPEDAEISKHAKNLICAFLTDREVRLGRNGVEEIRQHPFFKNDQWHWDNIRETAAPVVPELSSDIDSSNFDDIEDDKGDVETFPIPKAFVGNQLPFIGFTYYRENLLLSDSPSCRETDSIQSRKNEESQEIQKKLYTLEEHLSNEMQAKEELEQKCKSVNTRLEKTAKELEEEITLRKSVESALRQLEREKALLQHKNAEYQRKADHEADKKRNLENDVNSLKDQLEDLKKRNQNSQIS
Experimental: as §1, §2

| SMILES | IC50 [1] | IC50 [2] | Selectivity for ROCK2 over ROCK1 (IC50 ROCK1 / IC50 ROCK2) [2] |
| --- | --- | --- | --- |
| CC(=O)Nc1cc(-c2nnc(Nc3ccc4[nH]ncc4c3Cl)s2)ccc1C(F)(F)F [Example 48O] | > 30 µM | < 1 µM | >100 |
| O=C(O)Cn1cc(C(=O)Nc2cc(F)c(F)c(-c3nnc(Nc4ccc5[nH]ncc5c4)s3)c2)cn1 [Example 35AY] | > 30 µM | < 1 µM | >75 |
| CC(=O)Nc1cc(-c2nnc(Nc3ccc4[nH]ncc4c3Cl)s2)ccn1.O=C(O)C(F)(F)F [Example 35AE] | < 1 µM | < 1 µM | <5 |
| O=C(NCC(O)CO)c1cccc(-c2nnc(Nc3ccc4[nH]ncc4c3)s2)c1 (centres unmarked) [Example A-4] | 1 to 15 µM | 1 to 15 µM | <5 |
| OC1(c2cccc(-c3nnc(Nc4ccc5[nH]ncc5c4Cl)s3)c2)COC1 [Example 35AJ] | > 30 µM | < 1 µM | >75 |
| Cn1cc(CC(=O)Nc2cc(-c3nnc(Nc4ccc5[nH]ncc5c4Cl)s3)ccn2)cn1 [Example 36, N-(4-(5-((4-Chloro-1H-indazol-5-yl)amino)-1,3,4-thiadiazol-2-yl)pyridin-2-yl)-2-(1-methyl-1H-pyrazol-4-yl)acetamide] | < 1 µM | < 1 µM | >5 |
| Clc1c(Nc2nnc(-c3cccc4[nH]c(-c5cccs5)nc34)s2)ccc2[nH]ncc12 [Example 56B] | > 30 µM | < 1 µM | >100 |
| Cn1cc(C(=O)Nc2cc(-c3nnc(Nc4ccc5[nH]ncc5c4Cl)s3)ccc2C(F)(F)F)cn1 [Example 48N] | > 30 µM | < 1 µM | >100 |
| O=C(Cc1ccccn1)Nc1cccc(-c2nnc(Nc3ccc4[nH]ncc4c3Cl)s2)c1 [Example 35BM] | > 30 µM | < 1 µM | >100 |
| Cn1cc(C(=O)Nc2cccc(-c3nnc(Nc4ccc5[nH]nc(Cl)c5c4)s3)c2)cn1 [Example 75J] | > 30 µM | > 30 µM |  |
| CN1CCN(c2cc(-c3nnc(Nc4ccc5[nH]ncc5c4Cl)s3)ccn2)C1=O [Example 38, 1-(4-(5-((4-Chloro-1H-indazol-5-yl)amino)-1,3,4-thiadiazol-2-yl)pyridin-2-yl)-3-methylimidazolidin-2-one] | < 1 µM | < 1 µM | >5 |
| Clc1c(Nc2nnc(-c3cccc(-c4nccn4C4COC4)c3)s2)ccc2[nH]ncc12 [Example 37, N-(4-Chloro-1H-indazol-5-yl)-5-(3-(1-(oxetan-3-yl)-1H-imidazol-2-yl)phenyl)-1,3,4-thiadiazol-2-amine] | > 30 µM | < 1 µM | >100 |
| Nc1cc(-c2nnc(Nc3ccc4[nH]ncc4c3)s2)ccn1.O=C(O)C(F)(F)F [Example 35CQ] | > 30 µM | < 1 µM | >100 |
| Cn1cc(C(=O)Nc2cc(-c3nnc(Nc4ccc5[nH]ncc5c4)s3)ccn2)cn1 [Example 75I] | < 1 µM | < 1 µM | <5 |
| CC(C)c1cn2cccc(-c3nnc(Nc4ccc5[nH]ncc5c4Cl)s3)c2n1 [Example 52B] | < 1 µM | < 1 µM | <5 |
| CC(=O)Nc1cc(CN2CCN(C)CC2)cc(-c2nnc(Nc3ccc4[nH]ncc4c3Cl)s2)c1.O=C(O)C(F)(F)F [Example 48B] | 1 to 15 µM | < 1 µM | >50 |
| Cn1cc(C(=O)Nc2cc(-c3nnc(Nc4ccc5[nH]ncc5c4Cl)s3)ccc2Br)cn1 [Example 48Y] | > 30 µM | < 1 µM | >100 |
| CC(=O)Nc1cccc(-c2nnc(N(C)c3ccc4[nH]ncc4c3Cl)s2)c1 [Example 35BC] | > 30 µM | < 1 µM | >75 |
| CC(=O)Nc1cc(-c2nnc(Nc3ccc4[nH]ncc4c3Cl)s2)ccc1CN(C)C [Example 48L] | 1 to 15 µM | < 1 µM | >5 |
| Nc1nc(-c2nnc(Nc3ccc4[nH]ncc4c3Cl)s2)c[nH]1 [Example 75W] | < 1 µM | < 1 µM | <5 |
| CN1C(=O)Cc2cccc(-c3nnc(Nc4ccc5[nH]ncc5c4Cl)s3)c21 [Example 56C] | 1 to 15 µM | 1 to 15 µM | <5 |
| CC(=O)Nc1cccc(-c2nnc(Nc3ccc4[nH]ncc4c3Cl)s2)c1 [Example 35Y] | < 1 µM | < 1 µM | >5 |
| Cc1cc(CC(=O)Nc2cccc(-c3nnc(Nc4ccc5[nH]ncc5c4Cl)s3)c2)on1 [Example 35BN] | < 1 µM | < 1 µM | >5 |
| O=C(O)C(F)(F)F.OCc1cc(-c2ncco2)cc(-c2nnc(Nc3ccc4[nH]ncc4c3Cl)s2)c1 [Example 41C] | < 1 µM | < 1 µM | >5 |
| CC(=O)Nc1cccc(-c2nnc(Nc3ccc4[nH]ncc4c3C(F)(F)F)s2)c1 [Example 35AL] | 1 to 15 µM | < 1 µM | >5 |
| FC(F)(F)c1cn2cccc(-c3nnc(Nc4ccc5[nH]ncc5c4Cl)s3)c2n1 [Example 52C] | > 30 µM | < 1 µM | >100 |
| CC(=O)Nc1cc(-c2nnc(Nc3ccc4[nH]ncc4c3Cl)s2)ccc1-c1ncco1 [Example 48P] | > 30 µM | < 1 µM | >100 |
| COc1ccc(CC(=O)Nc2cccc(-c3nnc(Nc4ccc5[nH]ncc5c4Cl)s3)c2)cc1 [Example 35BQ] | < 1 µM | < 1 µM | >5 |
| Cn1cc(C(=O)Nc2cc(-c3nnc(Nc4ccc5[nH]ncc5c4)s3)ccc2C(=O)O)cn1 [Example A-5] | < 1 µM | < 1 µM | >5 |
| CC(=O)Nc1cc(CO)cc(-c2nnc(Nc3ccc4[nH]ncc4c3Cl)s2)c1 [Example 48H] | < 1 µM | < 1 µM | >50 |

Results, then the compound that gave them:

| IC50 [1] | IC50 [2] | Selectivity for ROCK2 over ROCK1 (IC50 ROCK1 / IC50 ROCK2) [2] | SMILES |
| --- | --- | --- | --- |
| > 30 µM | < 1 µM | >50 | CC(C)NC(=O)COc1cncc(-c2nnc(Nc3ccc4[nH]ncc4c3)s2)c1 [Example A-7] |
| > 30 µM | 1 to 15 µM | >5 | c1cnc(-c2nnc(Nc3ccc4[nH]ncc4c3)s2)cn1 [Example A-25] |
| > 30 µM | < 1 µM | >100 | O=C(Nc1cncc(-c2nnc(Nc3ccc4[nH]ncc4c3)s2)c1)c1c[nH]cn1 [Example A-37] |
| 1 to 15 µM | 1 to 15 µM | >5 | O=C(O)COc1cccc(-c2nnc(Nc3ccc4[nH]ncc4c3)s2)c1 [Example A-22] |
| < 1 µM | < 1 µM | <5 | Cn1cnc2c(-c3nnc(Nc4ccc5[nH]ncc5c4)s3)cccc21 [Example A-15] |
| > 30 µM | < 1 µM | >100 | COc1cccc(-c2nnc(Nc3ccc4[nH]ncc4c3)s2)c1 [Example A-34] |
| 1 to 15 µM | 1 to 15 µM | <5 | c1cc2[nH]ncc2cc1Nc1nnc(N2CCNCC2)s1 [Example A-48] |
| 15 to 30 µM | 1 to 15 µM | >5 | O=C(O)c1cccc(-c2nnc(Nc3ccc4[nH]ncc4c3)s2)c1 [Example A-9] |
| > 30 µM | 1 to 15 µM | >5 | O=C(c1ccnnc1)N1CCN(c2nnc(Nc3ccc4[nH]ncc4c3)s2)CC1 [Example A-36] |
| 1 to 15 µM | 1 to 15 µM | <5 | N[C@@H]1CCN(c2nnc(Nc3ccc4[nH]ncc4c3)s2)C1 [Example A-38] |
| > 30 µM | < 1 µM | >100 | O=C(Nc1cccc(-c2nnc(Nc3ccc4[nH]ncc4c3)s2)c1)c1cn[nH]c1 [Example A-46] |
| > 30 µM | < 1 µM | >100 | O=C(Nc1cc(-c2nnc(Nc3ccc4[nH]ncc4c3)s2)ccn1)c1c[nH]cn1 [Example A-32] |
| < 1 µM | < 1 µM | <5 | Nc1cncc(-c2nnc(Nc3ccc4[nH]ncc4c3)s2)c1 [Example A-24] |
| > 30 µM | < 1 µM | >50 | CC(C)NC(=O)COc1cccc(-c2nnc(Nc3ccc4[nH]ncc4c3)s2)c1 [Example A-23] |
| 15 to 30 µM | 1 to 15 µM | <5 | CN(CC(O)CO)C(=O)c1cccc(-c2nnc(Nc3ccc4[nH]ncc4c3)s2)c1 (centres unmarked) [Example A-10] |
| > 30 µM | < 1 µM | >100 | O=C(Nc1cccc(-c2nnc(Nc3ccc4[nH]ncc4c3)s2)n1)c1c[nH]cn1 [Example A-31] |
